Data set [1] has as its system Staphylococcus aureus. The data set can be described thus: Antibacterial activity against methicillin-resistant Staphylococcus aureus 2658 RCMB after 18 to 20 hrs by broth microdilution method. It counts as functional.
Data set [2] deals with Staphylococcus aureus. The data set can be described thus: Antibacterial activity against mupirocin/rifampicin-resistant Staphylococcus aureus RN4220 NRS107 clinical isolate after 18 to 20 hrs by broth microdilution method. It counts as functional.
For data set [3], the system named is Staphylococcus aureus. The experiment in a line: Antibacterial activity against methicillin/ciprofloxacin/gentamicin/clindamycin-resistant Staphylococcus aureus USA200 NRS383 clinical isolate after 18 to 20 hrs by broth microdilution method. It counts as functional.
Data set [4] concerns Staphylococcus aureus. The data set can be described thus: Antibacterial activity against methicillin-resistant Staphylococcus aureus USA400 NRS123 clinical isolate after 18 to 20 hrs by broth microdilution method. It counts as functional.
For data set [5], the system named is Staphylococcus aureus. The experiment in a line: Antibacterial activity against methicillin/ciprofloxacin/clindamycin-resistant Staphylococcus aureus USA100 NRS382 clinical isolate after 18 to 20 hrs by broth microdilution method. The format is functional.
Data set [6] concerns Staphylococcus aureus. The data set can be described thus: Antibacterial activity against methicillin/erythromycin/tetracycline-resistant Staphylococcus aureus USA300 NRS384 clinical isolate after 18 to 20 hrs by broth microdilution method. It counts as functional.
Data set [7] deals with Staphylococcus aureus. The data set can be described thus: Antibacterial activity against vancomycin-resistant Staphylococcus aureus VRSA4 clinical isolate after 18 to 20 hrs by broth microdilution method. The format is functional.
The subject of data set [8] is Staphylococcus aureus. The data set can be described thus: Antibacterial activity against vancomycin-resistant Staphylococcus aureus VRSA10 clinical isolate after 18 to 20 hrs by broth microdilution method. It counts as functional.
For data set [9], the system named is Staphylococcus aureus. The experiment in a line: Bactericidal activity against mupirocin/rifampicin-resistant Staphylococcus aureus RN4220 NRS107 clinical isolate after 24 hrs. It counts as functional. The note with it: RN4220 NRS107, 24 h.
Data set [10] concerns Staphylococcus aureus. The experiment in a line: Bactericidal activity against methicillin/ciprofloxacin/gentamicin/clindamycin-resistant Staphylococcus aureus USA200 NRS383 clinical isolate after 24 hrs. It counts as functional. To be noted: for MBC: USA200 NRS383, 24 h.
The test system of data set [11] is Staphylococcus aureus. The experiment in a line: Bactericidal activity against methicillin-resistant Staphylococcus aureus USA400 NRS123 clinical isolate after 24 hrs. The format is functional. To be noted: for MBC: USA400 NRS123, 24 h.
The test system of data set [12] is Staphylococcus aureus. The experiment in a line: Bactericidal activity against methicillin/ciprofloxacin/clindamycin-resistant Staphylococcus aureus USA100 NRS382 clinical isolate after 24 hrs. The format is functional. To be noted: for MBC: USA100 NRS382, 24 h.
Data set [13] concerns Staphylococcus aureus. The data set can be described thus: Bactericidal activity against methicillin/erythromycin/tetracycline-resistant Staphylococcus aureus USA300 NRS384 clinical isolate after 24 hrs. It counts as functional. The note with it: for MBC: USA300 NRS384, 24 h.
Data set [14] deals with Staphylococcus aureus. The data set can be described thus: Bactericidal activity against vancomycin-resistant Staphylococcus aureus VRSA4 clinical isolate after 24 hrs. The format is functional. To be noted: VRSA4, 24 h.
The subject of data set [15] is Staphylococcus aureus. The experiment in a line: Bactericidal activity against vancomycin-resistant Staphylococcus aureus VRSA10 clinical isolate after 24 hrs. The format is functional. The note with it: VRSA10, 24 h.
Data set [16] deals with HaCaT. The experiment in a line: Cytotoxicity against human HaCaT cells assessed as decrease in cell viability up to 16 ug/ml after 2 hrs by MTS assay. It counts as cell-based.
For data set [17], the system named is Staphylococcus aureus. The experiment in a line: Bactericidal activity against methicillin-resistant Staphylococcus aureus USA400 NRS123 clinical isolate assessed as time required to reduce 3 log10CFU of bacterial load at 4 times MIC by time kill assay. The format is functional.
The test system of data set [18] is HaCaT. The data set can be described thus: Cytotoxicity against human HaCaT cells assessed as decrease in cell viability up to 32 ug/ml after 2 hrs by MTS assay. The format is cell-based.
For data set [19], the system named is HaCaT. The data set can be described thus: Cytotoxicity against human HaCaT cells assessed as decrease in cell viability at 64 ug/ml after 2 hrs by MTS assay. It counts as cell-based.
Data set [20] in a line: Intrinsic clearance in human liver microsomes after 10 to 60 mins in presence of NADPH by LC/MS/MS analysis. It counts as ADME, microsome. The note with it: read-out: CLH.
A short description of data set [21]: Half life in human liver microsomes after 10 to 60 mins in presence of NADPH by LC/MS/MS analysis. The format is ADME, microsome.
Data set [22] in a line: Intrinsic clearance in human liver microsomes after 10 to 60 mins in absence of NADPH by LC/MS/MS analysis. It counts as ADME, microsome. To be noted: read-out: CLH.
Data set [23] can be described thus: Half life in human liver microsomes after 10 to 60 mins in absence of NADPH by LC/MS/MS analysis. It counts as ADME, microsome.

Converted amounts (≈) assume the structure as drawn.

The values below come from ChEMBL document CHEMBL4002577, “Phenylthiazole antibiotics: A metabolism-guided approach to overcome short duration of action” (Eur J Med Chem, 2017).

For `C/C(=N\NC(=N)N)c1sc(-c2ccc(OC3CCCC3)cc2)nc1C`, the MIC in the data set with Staphylococcus aureus [1] amounted to 15.6 µg/mL (≈ 43.7 µM); in the data set on Staphylococcus aureus [2], 8 µg/mL (≈ 22.4 µM); in the data set on Staphylococcus aureus [3], 2 µg/mL (≈ 5.59 µM); with Staphylococcus aureus [4], 8 µg/mL (≈ 22.4 µM); against Staphylococcus aureus [5] it was 2 µg/mL (≈ 5.59 µM); in the data set on Staphylococcus aureus [6] it was 8 µg/mL (≈ 22.4 µM). The MIC against Staphylococcus aureus [7] and with Staphylococcus aureus [8] was 8 µg/mL (≈ 22.4 µM) in each case. Also, the MBC came out at 8 µg/mL (≈ 22.4 µM) in the data set on Staphylococcus aureus [9]; 16 µg/mL (≈ 44.8 µM) with Staphylococcus aureus [10]; 32 µg/mL (≈ 89.5 µM) with Staphylococcus aureus [11]; 4 µg/mL (≈ 11.2 µM) in the data set with Staphylococcus aureus [12]; 8 µg/mL (≈ 22.4 µM) with Staphylococcus aureus [13]; 8 µg/mL (≈ 22.4 µM) in the data set with Staphylococcus aureus [14]. This compound also returned an MBC against Staphylococcus aureus [15] of 8 µg/mL (≈ 22.4 µM). In addition, the Activity entry with Staphylococcus aureus [10] is “Dose-dependent effect”; with Staphylococcus aureus [11] it was “Dose-dependent effect”; with Staphylococcus aureus [12], “Dose-dependent effect”; in the data set on Staphylococcus aureus [13] it was “Dose-dependent effect”; in the data set with HaCaT [16], “Non-Toxic”.
For `CCCCCCOc1ccc(-c2nc(C)c(/C(C)=N/NC(=N)N)s2)cc1`, the minimum inhibitory concentration (MIC) against Staphylococcus aureus [1] is 0.35 µg/mL (≈ 0.937 µM); in the data set with Staphylococcus aureus [2] it was 4 µg/mL (≈ 10.7 µM); in the data set on Staphylococcus aureus [3], 1 µg/mL (≈ 2.68 µM); against Staphylococcus aureus [4], 4 µg/mL (≈ 10.7 µM); against Staphylococcus aureus [5], 2 µg/mL (≈ 5.35 µM); in the data set with Staphylococcus aureus [6], 4 µg/mL (≈ 10.7 µM). For the same compound, the MIC with Staphylococcus aureus [7] and in the data set with Staphylococcus aureus [8] was 4 µg/mL (≈ 10.7 µM) each time. Also, the MBC against Staphylococcus aureus [9] is 4 µg/mL (≈ 10.7 µM); against Staphylococcus aureus [10], 2 µg/mL (≈ 5.35 µM); against Staphylococcus aureus [11], 16 µg/mL (≈ 42.8 µM); with Staphylococcus aureus [12], 2 µg/mL (≈ 5.35 µM); with Staphylococcus aureus [13], 8 µg/mL (≈ 21.4 µM); in the data set on Staphylococcus aureus [14], 4 µg/mL (≈ 10.7 µM). In the data set with Staphylococcus aureus [15], this compound gave an MBC of 4 µg/mL (≈ 10.7 µM). Moreover, in the data set with Staphylococcus aureus [17], the Time turned out to be 24 h. The Activity entry is “Non-Toxic” in the data set with HaCaT [18] and “Toxic” in the data set on HaCaT [19]. The microsomal CLint in data set [20] and in [22] was less than 9.6 µL/min/mg in each case. The half-life in [21] and in data set [23] was greater than 4 h throughout.
On to `C/C(=N\NC(=N)N)c1sc(-c2ccc(OCC(C)C)cc2)nc1C`, for which the MIC came to 15.6 µg/mL (≈ 45.2 µM) against Staphylococcus aureus [1]; 32 µg/mL (≈ 92.6 µM) in the data set on Staphylococcus aureus [2]; 8 µg/mL (≈ 23.2 µM) in the data set with Staphylococcus aureus [3]; 16 µg/mL (≈ 46.3 µM) in the data set with Staphylococcus aureus [4]; 8 µg/mL (≈ 23.2 µM) in the data set on Staphylococcus aureus [5]; 16 µg/mL (≈ 46.3 µM) in the data set with Staphylococcus aureus [6]. The MIC against Staphylococcus aureus [7] and with Staphylococcus aureus [8] was 16 µg/mL (≈ 46.3 µM) each time. The MBC against Staphylococcus aureus [9] is 32 µg/mL (≈ 92.6 µM); in the data set on Staphylococcus aureus [10], 8 µg/mL (≈ 23.2 µM); against Staphylococcus aureus [11] it was greater than 32 µg/mL; in the data set on Staphylococcus aureus [12], 16 µg/mL (≈ 46.3 µM); against Staphylococcus aureus [13] it was 32 µg/mL (≈ 92.6 µM); against Staphylococcus aureus [14], 32 µg/mL (≈ 92.6 µM). Also, the MBC against Staphylococcus aureus [15] turned out to be 32 µg/mL (≈ 92.6 µM).
As for `C/C(=N\NC(=N)N)c1sc(-c2ccc(OCCCC(C)C)cc2)nc1C`, the MIC against Staphylococcus aureus [1] is 15.6 µg/mL (≈ 41.8 µM); in the data set on Staphylococcus aureus [2] it was 16 µg/mL (≈ 42.8 µM); with Staphylococcus aureus [3], 4 µg/mL (≈ 10.7 µM); in the data set with Staphylococcus aureus [4], 16 µg/mL (≈ 42.8 µM); against Staphylococcus aureus [5], 2 µg/mL (≈ 5.35 µM); against Staphylococcus aureus [6], 16 µg/mL (≈ 42.8 µM). Also, the MIC in the data set with Staphylococcus aureus [7] and against Staphylococcus aureus [8] was 16 µg/mL (≈ 42.8 µM) in each case. The MBC came to 16 µg/mL (≈ 42.8 µM) with Staphylococcus aureus [9]; 16 µg/mL (≈ 42.8 µM) against Staphylococcus aureus [10]; 32 µg/mL (≈ 85.7 µM) against Staphylococcus aureus [11]; 2 µg/mL (≈ 5.35 µM) against Staphylococcus aureus [12]; 32 µg/mL (≈ 85.7 µM) against Staphylococcus aureus [13]; 16 µg/mL (≈ 42.8 µM) with Staphylococcus aureus [14]. This compound also gave an MBC against Staphylococcus aureus [15] of 16 µg/mL (≈ 42.8 µM).
In the case of `CCCCCOc1ccc(-c2nc(C)c(/C(C)=N/NC(=N)N)s2)cc1`, the figures for the MIC with Staphylococcus aureus [1] and with Staphylococcus aureus [3] were 1.95 µg/mL (≈ 5.42 µM) and 64 µg/mL (≈ 178 µM), respectively. The MBC in the data set with Staphylococcus aureus [10] is greater than 64 µg/mL.
`CCC(CC)COc1ccc(-c2nc(C)c(/C(C)=N/NC(=N)N)s2)cc1`: the MIC worked out at 7.81 µg/mL (≈ 20.9 µM) in the data set with Staphylococcus aureus [1], 32 µg/mL (≈ 85.7 µM) against Staphylococcus aureus [3] and 32 µg/mL (≈ 85.7 µM) against Staphylococcus aureus [5]. The MBC against Staphylococcus aureus [10] is greater than 64 µg/mL; against Staphylococcus aureus [12], 32 µg/mL (≈ 85.7 µM).
With `C/C=C/COc1ccc(-c2nc(C)c(/C(C)=N/NC(=N)N)s2)cc1`, the minimum inhibitory concentration (MIC) was found to be 15.6 µg/mL (≈ 45.5 µM) in the data set with Staphylococcus aureus [1]; 32 µg/mL (≈ 93.2 µM) against Staphylococcus aureus [2]; 16 µg/mL (≈ 46.6 µM) against Staphylococcus aureus [3]; 32 µg/mL (≈ 93.2 µM) against Staphylococcus aureus [4]; 16 µg/mL (≈ 46.6 µM) in the data set on Staphylococcus aureus [5]; 32 µg/mL (≈ 93.2 µM) with Staphylococcus aureus [6]. Further, the MIC in the data set with Staphylococcus aureus [7] and in the data set with Staphylococcus aureus [8] was 32 µg/mL (≈ 93.2 µM) throughout. Further, the MBC against Staphylococcus aureus [9] was 32 µg/mL (≈ 93.2 µM); with Staphylococcus aureus [10] it was greater than 64 µg/mL; with Staphylococcus aureus [11], greater than 32 µg/mL; in the data set with Staphylococcus aureus [12], 128 µg/mL (≈ 373 µM); in the data set on Staphylococcus aureus [13], greater than 32 µg/mL; against Staphylococcus aureus [14], 32 µg/mL (≈ 93.2 µM). This compound also gave an MBC in the data set with Staphylococcus aureus [15] of 32 µg/mL (≈ 93.2 µM).
As to `CCCCCCCCCOc1ccc(-c2nc(C)c(/C(C)=N/NC(=N)N)s2)cc1`, the MIC with Staphylococcus aureus [1] is greater than 30 µg/mL; in the data set on Staphylococcus aureus [2] it was 16 µg/mL (≈ 38.5 µM); against Staphylococcus aureus [3], 4 µg/mL (≈ 9.62 µM); against Staphylococcus aureus [4], 16 µg/mL (≈ 38.5 µM); against Staphylococcus aureus [6], 16 µg/mL (≈ 38.5 µM); against Staphylococcus aureus [7], 16 µg/mL (≈ 38.5 µM). In the data set with Staphylococcus aureus [8], this compound yielded an MIC of 16 µg/mL (≈ 38.5 µM). For the same compound, the minimal bactericidal concentration (MBC) against Staphylococcus aureus [9] amounted to 16 µg/mL (≈ 38.5 µM); in the data set with Staphylococcus aureus [10], 8 µg/mL (≈ 19.2 µM); against Staphylococcus aureus [11], 16 µg/mL (≈ 38.5 µM); against Staphylococcus aureus [12], 8 µg/mL (≈ 19.2 µM); with Staphylococcus aureus [13], 16 µg/mL (≈ 38.5 µM); with Staphylococcus aureus [14], 16 µg/mL (≈ 38.5 µM). The compound also came in with an MBC with Staphylococcus aureus [15] of 16 µg/mL (≈ 38.5 µM).
